The results in this text go back to PMC6778635 (Cancer Science, 2019).

In this assay the target is p97/VCP (Homo sapiens, UniProt P55072). Nature of the assay: cell-free ATPase assay on purified recombinant p97/VCP. The format is biochemical.
p97/VCP, sequence (P55072 2-806): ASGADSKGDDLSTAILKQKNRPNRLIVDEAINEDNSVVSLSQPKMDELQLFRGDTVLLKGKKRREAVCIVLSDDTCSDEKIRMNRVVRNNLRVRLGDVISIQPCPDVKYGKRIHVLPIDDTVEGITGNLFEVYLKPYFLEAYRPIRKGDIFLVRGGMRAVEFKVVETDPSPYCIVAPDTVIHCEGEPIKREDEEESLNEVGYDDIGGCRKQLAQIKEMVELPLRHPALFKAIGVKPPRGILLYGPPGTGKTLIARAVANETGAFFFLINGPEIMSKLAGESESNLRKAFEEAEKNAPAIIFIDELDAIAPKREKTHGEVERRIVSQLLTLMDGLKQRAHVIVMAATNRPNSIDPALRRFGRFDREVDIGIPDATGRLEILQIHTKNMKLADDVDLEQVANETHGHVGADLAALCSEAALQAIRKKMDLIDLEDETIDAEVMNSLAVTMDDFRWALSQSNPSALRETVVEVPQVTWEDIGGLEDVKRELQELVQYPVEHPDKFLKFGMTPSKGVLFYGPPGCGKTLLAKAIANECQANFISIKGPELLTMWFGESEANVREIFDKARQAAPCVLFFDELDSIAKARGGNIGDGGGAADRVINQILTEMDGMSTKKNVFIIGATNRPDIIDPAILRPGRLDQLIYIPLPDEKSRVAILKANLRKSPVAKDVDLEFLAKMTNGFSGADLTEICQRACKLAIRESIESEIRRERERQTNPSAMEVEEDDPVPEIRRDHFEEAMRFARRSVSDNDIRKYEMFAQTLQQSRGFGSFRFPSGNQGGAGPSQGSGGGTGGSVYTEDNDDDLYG

Regarding `c1ccc(CNc2nc(NCc3ccccc3)c3ccccc3n2)cc1` [DBeQ], the half-inhibitory concentration (IC50) is 6.99 ± 0.5 µM.

A word on the IC50: it is the concentration at which inhibition is half-maximal.
